Measured values published in US7662825B2, “N-pyrazinyl-phenylsulphonamides and their use in the treatment of chemokine mediated diseases” (AstraZeneca AB, priority 2002, dated 2010).

Row | melting point | SMILES
1 | 190 to 192 °C | COc1nc(Cl)cnc1NS(=O)(=O)c1ccccc1Cl [Example 51, 2-Chloro-N-(5-chloro-3-methoxy-2-pyrazinyl)benzenesulphonamide]
2 | 129 to 130 °C | COc1nc(Cl)cnc1NS(=O)(=O)c1cccc(Cl)c1 [Example 52, 3-Chloro-N-(5-chloro-3-methoxy-2-pyrazinyl)benzenesulphonamide]
3 | 179 to 180 °C | COc1nc(Cl)cnc1NS(=O)(=O)c1ccc(Cl)cc1 [Example 53, 4-Chloro-N-(5-chloro-3-methoxy-2-pyrazinyl)benzenesulphonamide]
4 | 170 to 171 °C | COc1nc(Cl)cnc1NS(=O)(=O)c1ccc(Cl)cc1Cl [Example 54, N-(5-Chloro-3-methoxy-2-pyrazinyl)-2,4-dichlorobenzenesulphonamide]
5 | 167 to 168 °C | COc1nc(N2CCOCC2)cnc1NS(=O)(=O)c1cccc(Cl)c1Cl [Example 55, 2,3-Dichloro-N-[3-methoxy-5-(4-morpholinyl)-2-pyrazinyl]benzenesulphonamide]
6 | 138 to 139 °C | COc1cnc(NS(=O)(=O)c2cccc(Cl)c2Cl)c(OC)n1 [Example 56, 2,3-Dichloro-N-[3,5-dimethoxy-2-pyrazinyl]benzenesulphonamide]
7 | 179 to 180 °C | COc1nc(N2CCCC2)cnc1NS(=O)(=O)c1cccc(Cl)c1Cl [Example 57]
8 | 177 to 178 °C | COc1nc(Cl)c(Cl)nc1NS(=O)(=O)c1cccc(Cl)c1C [Example 58, 3-Chloro-N-(5,6-dichloro-3-methoxy-2-pyrazinyl)-2-methylbenzenesulphonamide]
9 | 172 to 173 °C | COc1nc(Cl)c(Cl)nc1NS(=O)(=O)c1cccc(Cl)c1Cl [Example 59, 2,3-Dichloro-N-(5,6-dichloro-3-methoxy-2-pyrazinyl)benzenesulphonamide]
10 | 217 to 218 °C | COc1nc(Cl)c(Cl)nc1NS(=O)(=O)c1ccccc1Cl [Example 60, 2-Chloro-N-(5,6-dichloro-3-methoxy-2-pyrazinyl)benzenesulphonamide]
11 | 171 to 172 °C | COc1nc(Cl)c(Cl)nc1NS(=O)(=O)c1cccc(Cl)c1 [Example 61, 3-Chloro-N-(5,6-dichloro-3-methoxy-2-pyrazinyl)benzenesulphonamide]
12 | 186 to 187 °C | COc1nc(Cl)c(Cl)nc1NS(=O)(=O)c1ccc(Cl)cc1 [Example 62, 4-Chloro-N-(5,6-dichloro-3-methoxy-2-pyrazinyl)benzenesulphonamide]
13 | 171 to 172 °C | COc1nc(Cl)c(Cl)nc1NS(=O)(=O)c1ccc(Cl)cc1Cl [Example 63, 2,4-Dichloro-N-(5,6-dichloro-3-methoxy-2-pyrazinyl)benzenesulphonamide]
14 | 189 to 191 °C | COc1nc(Cl)c(Cl)nc1NS(=O)(=O)c1ccc(Cl)c(Cl)c1 [Example 64, 3,4-Dichloro-N-(5,6-dichloro-3-methoxy-2-pyrazinyl)benzenesulphonamide]
15 | 165 to 166 °C | COc1nc(C)c(C)nc1NS(=O)(=O)c1cccc(Cl)c1Cl [Example 65, 2,3-Dichloro-N-(3-methoxy-5,6-dimethyl-2-pyrazinyl)benzenesulphonamide]

The next lines start with the molecule.

Row | SMILES | melting point
16 | COc1nc(C)cnc1NS(=O)(=O)c1ccccc1F [Example 13, N-(3-Methoxy-5-methyl-2-pyrazinyl)-2-fluorobenzenesulphonamide] | 150 to 152 °C
17 | Cc1cnc(NS(=O)(=O)c2cccc(Cl)c2Cl)c(OCc2ccco2)n1 [Example 20, 2,3-Dichloro-N-[3-(2-furanylmethoxy)-5-methyl-2-pyrazinyl]benzenesulphonamide] | 127 to 129 °C
18 | Cc1cnc(NS(=O)(=O)c2cccc(Cl)c2Cl)c(OCc2cc(C)on2)n1 [Example 21, 2,3-Dichloro-N-[5-methyl-3-(5-methyl-3-isoxazolylmethoxy)-2-pyrazinyl]benzenesulphonamide] | 155 to 156 °C
19 | Cc1cccc(COc2nc(C)cnc2NS(=O)(=O)c2cccc(Cl)c2Cl)n1 [Example 23, 2,3-Dichloro-N-[5-methyl-3-(6-methyl-2-pyridinylmethoxy)-2-pyrazinyl]benzenesulphonamide] | 164 to 165 °C
20 | Cc1cnc(NS(=O)(=O)c2cccc(Cl)c2Cl)c(OCc2cccnc2)n1 [Example 24, 2,3-Dichloro-N-[5-methyl-3-(3-pyridinylmethoxy)-2-pyrazinyl]benzenesulphonamide] | 160 to 161 °C
21 | Cc1cnc(NS(=O)(=O)c2cccc(Cl)c2Cl)c(OCc2ccncc2)n1 [Example 25, 2,3-Dichloro-N-[5-methyl-3-(4-pyridinylmethoxy)-2-pyrazinyl]benzenesulphonamide] | 183 to 184 °C
22 | Cc1cnc(NS(=O)(=O)c2cccc(Cl)c2Cl)c(OCc2ncccc2C)n1 [Example 26, 2,3-Dichloro-N-[5-methyl-3-(3-methyl-2-pyridinylmethoxy)-2-pyrazinyl]benzenesulphonamide] | 137 to 138 °C
23 | Cc1cnc(NS(=O)(=O)c2cccc(Cl)c2Cl)c(OCc2cccnn2)n1 [Example 27, 2,3-Dichloro-N-[5-methyl-3-(3-pyridazinylmethoxy)-2-pyrazinyl]benzenesulphonamide] | 119 to 124 °C
24 | O=S(=O)(Nc1nccnc1OCc1ccccn1)c1cccc(Cl)c1Cl [Example 28, 2,3-Dichloro-N-[3-(2-pyridinylmethoxy)-2-pyrazinyl]benzenesulphonamide] | 167 to 168 °C
25 | O=S(=O)(Nc1nccnc1OCc1cccnc1)c1cccc(Cl)c1Cl [Example 29, 2,3-Dichloro-N-[3-(3-pyridinylmethoxy)-2-pyrazinyl]benzenesulphonamide] | 138 to 139 °C
26 | COc1nccnc1NS(=O)(=O)c1cccc(Cl)c1Cl [Example 30, 2,3-Dichloro-N-(3-methoxy-2-pyrazinyl)benzenesulphonamide] | 183 to 184 °C
27 | O=S(=O)(Nc1ncc(Br)nc1OCc1cnccn1)c1cccc(Cl)c1Cl [Example 31, N-[5-Bromo-3-(2-pyrazinylmethoxy)-2-pyrazinyl]-2,3-dichlorobenzenesulphonamide] | 207 to 209 °C
28 | Cn1cc(COc2nc(Br)cnc2NS(=O)(=O)c2cccc(Cl)c2Cl)ccc1=O [Example 32, N-[5-Bromo-3-(1-methyl-6-oxo-1,6-dihydro-3-pyridinylmethoxy)-2-pyrazinyl]-2,3-dichlorobenzenesulphonamide] | 169 to 170 °C
29 | O=S(=O)(Nc1ncc(Br)nc1OCc1cccnn1)c1cccc(Cl)c1Cl [Example 33] | 115 to 120 °C
30 | O=S(=O)(Nc1ncc(Br)nc1OCc1cccnc1)c1cccc(Cl)c1Cl [Example 34, N-[5-Bromo-3-(3-pyridinylmethoxy)-2-pyrazinyl]-2,3-dichlorobenzenesulphonamide] | 204 to 206 °C
31 | O=S(=O)(Nc1ncc(Br)nc1OCc1cncnc1)c1cccc(Cl)c1Cl [Example 35, N-[5-Bromo-3-(5-pyrimidinylmethoxy)-2-pyrazinyl]-2,3-dichlorobenzenesulphonamide] | 208 to 209 °C
32 | O=S(=O)(Nc1ncc(Cl)nc1OCc1cccnc1)c1cccc(Cl)c1Cl [Example 36, N-[5-Chloro-3-(3-pyridinylmethoxy)-2-pyrazinyl]-2,3-dichlorobenzenesulphonamide] | 200 to 204 °C
33 | O=S(=O)(Nc1ncc(Cl)nc1OCc1cncnc1)c1cccc(Cl)c1Cl [Example 37, N-[5-Chloro-3-(5-pyrimidinylmethoxy)-2-pyrazinyl]-2,3-dichlorobenzenesulphonamide] | 205 to 206 °C
34 | COc1ncc(Cl)nc1NS(=O)(=O)c1ccccc1Cl [Example 38, 2-Chloro-N-(6-chloro-3-methoxy-2-pyrazinyl)benezenesulphonamide] | 172 to 173 °C
35 | COc1ncc(Cl)nc1NS(=O)(=O)c1cccc(Cl)c1 [Example 39, 3-Chloro-N-(6-chloro-3-methoxy-2-pyrazinyl)benezenesulphonamide] | 126 to 127 °C
36 | COc1ncc(Cl)nc1NS(=O)(=O)c1ccc(Cl)cc1 [Example 40, 4-Chloro-N-(6-chloro-3-methoxy-2-pyrazinyl)benezenesulphonamide] | 174 to 175 °C
37 | COc1ncc(Cl)nc1NS(=O)(=O)c1ccc(Cl)cc1Cl [Example 41, N-(6-Chloro-3-methoxy-2-pyrazinyl)-2,4-dichlorobenezenesulphonamide] | 189 to 190 °C
38 | COc1ncc(Cl)nc1NS(=O)(=O)c1ccc(Cl)c(Cl)c1 [Example 42, N-(6-Chloro-3-methoxy-2-pyrazinyl)-3,4-dichlorobenezenesulphonamide] | 176 to 177 °C
39 | COc1nc(C)cnc1NS(=O)(=O)c1cccc(Cl)c1C [Example 43, 3-Chloro-N-(3-methoxy-5-methyl-2-pyrazinyl)-2-methylbenezenesulphonamide] | 133 to 135 °C
40 | COc1nc(C)cnc1NS(=O)(=O)c1cccc(Cl)c1 [Example 45, 3-Chloro-N-(3-methoxy-5-methyl-2-pyrazinyl)benezenesulphonamide] | 123 to 125 °C
41 | COc1nc(C)cnc1NS(=O)(=O)c1ccc(Cl)cc1 [Example 46, 4-Chloro-N-(3-methoxy-5-methyl-2-pyrazinyl)benezenesulphonamide] | 155 to 156 °C
42 | COc1nc(C)cnc1NS(=O)(=O)c1ccc(Cl)cc1Cl [Example 47, 2,4-Dichloro-N-(3-methoxy-5-methyl-2-pyrazinyl)benezenesulphonamide] | 135 to 136 °C
43 | COc1nc(C)cnc1NS(=O)(=O)c1ccc(Cl)c(Cl)c1 [Example 48, 3,4-Dichloro-N-(3-methoxy-5-methyl-2-pyrazinyl)benezenesulphonamide] | 148 to 149 °C
44 | COc1nc(Br)cnc1NS(=O)(=O)c1ccccc1OC(F)(F)F [Example 49, N-(5-Bromo-3-methoxy-2-pyrazinyl)-2-trifluoromethoxybenezenesulphonamide] | 156 to 157 °C
45 | COc1nc(Cl)cnc1NS(=O)(=O)c1cccc(Cl)c1C [Example 50, 3-Chloro-N-(5-chloro-3-methoxy-2-pyrazinyl)-2-methylbenzenesulphonamide] | 150 to 152 °C
